Test results published in publication PMC7922224, “Searching for Small Molecules as Antibacterials: Non-Cytotoxic Diarylureas Analogues of Triclocarban” (Antibiotics, 2021).
In brackets after ≈: the same amount, converted by molar mass.

Key:
E. coli 25922 [1] = assay: MIC by broth microdilution (CLSI); format: cell-based; conditions: Escherichia coli, Gram-negative, 37 °C, 24 h, Mueller Hinton Broth
[2] = tested on: HeLa uterine cancer cells; assay: MTT cell viability assay; format: cell-based; conditions: Homo sapiens, 72 h, mean ± SD of three independent experiments
Excerpt: (§1) Human MCF-7 and MDA-MB-231 breast cancer cells, HeLa and […] uterine carcinoma cells, A2058 melanoma epithelial cells, MCF-10A mammary epithelial cells and Hek-293 embryonic kidney epithelial cells were obtained from American Type Culture Collection (ATCC, Manassas, VA, USA). Estrogen receptor positive [(ER(+)] MCF-7 and triple negative MDA-MB-231 breast cancer cells were maintained in Dulbecco’s modified Eagle’s medium/nutrient mixture F-12 Ham (DMEM-F12) medium containing 2 mmol/L L-glutamine, 1 mg/mL penicillin-streptomycin and supplemented with 5% fetal bovine serum (FBS). HeLa epithelial cervix carcinoma cells, estrogen receptor negative [ER(-)], and Ishikawa endometrial adenocarcinoma cell, estrogen receptor positive [ER(+)], were kept in minimum essential medium (MEM), supplemented with 10% FBS, 100 U/mL penicillin/streptomycin and 1% non-essential amino acid. A2058 highly metastatic melanoma epithelial cells were kept in DMEM low glucose (1 g/L), supplemented with 20% FBS, 1% l-glutamine and 100 U/mL penicillin/streptomycin. MCF-10A mammary epithelial cells, were cultured in DMEM/F12 medium, supplemented with 5% horse serum (HS), 100 U/mL penicillin/streptomycin, […] hydrocortisone, 20 ng/mL human epidermal growth factor (hEGF), […] and […] cholera enterotoxin (Sigma-Aldrich, Milan, Italy). Hek-293 embryonic kidney epithelial cells were cultured in DMEM high glucose (4.5 g/L), supplemented with 10% FBS, 1% l-glutamine and 100 U/mL penicillin/streptomycin. Cells were conserved at 37 °C in a humid atmosphere of 95% air and 5% CO2, and screened for contamination at regular intervals.
(§2) Cell viability was determined using the 3-(4,5-dimethylthiazol-2-y1)-2,5-diphenyltetrazolium bromide (MTT, Sigma-Aldrich, Milan, Italy) assay. Cells were seeded on 48-well plates and grown in complete medium. Before treatment, cells were starved in serum free medium for 24 h to allow cell cycle synchronization. […] Data are representative of three independent experiments; standard deviations (SD) are shown.

[3] = tested on: MDA-MB-231 breast cancer cells; assay: MTT cell viability assay; format: cell-based; conditions: Homo sapiens, 72 h, mean ± SD of three independent experiments
Excerpt: as §1, §2

[4] = tested on: MCF-10A mammary epithelial cells; assay: MTT cell viability assay; format: cell-based; conditions: Homo sapiens, normal cells, 72 h, mean ± SD of three independent experiments
Excerpt: as §1, §2

[5] = tested on: A2058 melanoma epithelial cells; assay: MTT cell viability assay; format: cell-based; conditions: Homo sapiens, 72 h, mean ± SD of three independent experiments
Excerpt: as §1, §2

[6] = tested on: Hek-293 embryonic kidney epithelial cells; assay: MTT cell viability assay; format: cell-based; conditions: Homo sapiens, HEK293, normal cells, 72 h, mean ± SD of three independent experiments
Excerpt: as §1, §2

[7] = tested on: MCF-7 breast cancer cells; assay: MTT cell viability assay; format: cell-based; conditions: Homo sapiens, MCF7, 72 h, mean ± SD of three independent experiments
Excerpt: as §1, §2

[8] = tested on: Ishikawa uterine cancer cells; assay: MTT cell viability assay; format: cell-based; conditions: Homo sapiens, 72 h, mean ± SD of three independent experiments
Excerpt: as §1, §2

K. pneumoniae ATCC 13883 [9] = assay: MIC by broth microdilution (CLSI); format: cell-based; conditions: Klebsiella pneumoniae, ATCC13883; Gram-negative; 37 °C, 24 h, Mueller Hinton Broth; read-out: MIC K.p. 13883
Method: (§3) The in vitro Minimum Inhibitory Concentrations (MICs, μg/mL) were determined by the broth microdilution method according to the Clinical Laboratory Standards Institute (CLSI) guidelines. MIC values were recorded as the lowest concentration of compounds at which there was no optically detectable microorganism growth and evaluated by comparing the growth in each well visually with that of the growth in the control well for bacteria. All compounds were dissolved in dimethyl sulfoxide (DMSO) and were tested in a final concentration range of from 512 to 2 µg/mL. MICs for the reference antibiotic norfloxacin against quality control strains were used to confirm the validity of the screen. According to the CLSI guidelines, diphenylureas were tested in vitro against a panel of Gram-positive and Gram-negative bacteria belonging to the ATCC collection using the standard microdilution test for the determination of MICs. MICs of the synthesised compounds along with the parent compound TCC and with the standard antibiotic norfloxacin are listed in Table 1. The compounds were also analyzed in terms of molecular mass, logP (Table 1), number of hydrogen-bond donors and number of hydrogen-bond acceptors, and most of them obeyed Lipinski’s rule. […] Based on our results, it seems that the 3,4-dichloro-disubstitution pattern, which is present in TCC, is not crucial for activity. […] Moreover, the activity against Enterococcus faecalis was interesting. E. faecalis is a ubiquitous member of the healthy human gut microbiota and also a common opportunistic pathogen and leading cause of nosocomial infections. It has a high incidence for most infections, and the case numbers have been increasing in recent decades, likely due to its greater ability to persist in healthcare facilities and its higher abundance in the human gut microbiome. Kim et al. (2016) compared the bactericidal effects of plain and antibacterial soap containing 0.3% TCC. The authors found no significative difference between the effects of plain and medicated soap at either temperature, with the only exception of E. faecalis ATCC 19433 at 40 °C.
(§4) MICs (μg/mL) were determined by the broth microdilution method, using 96-well plates, according to CLSI [26]. Stock solutions of the investigated compounds were obtained by setting the concentration at the maximum possible value. Then, the stock solutions were diluted 1:10 with Mueller Hinton Broth (Oxoid, Italy). Afterwards, twofold serial dilutions in the suitable test medium were carried out to obtain a set of concentrations from 512 to 2 µg/mL in the wells. To obtain the stock solution, DMSO (100%) was employed as diluent. The following bacteria strains, available as freeze-dried discs, belonging to the ATCC collection, were used: Gram-positive: S. aureus ATCC 29213, 6538, and 6538P, E. faecalis ATCC 29212; Gram-negative: K. pneuomoniae ATCC 13883, P. aeruginosa ATCC 27853. To conserve the purity of cultures and to enable their reproducibility, cryovials of all microbial strains in the medium were set up and stored at −80 °C. Pre-cultures of each bacterial strain were prepared in Mueller Hinton Broth (MHB) and incubated at 37 °C for 3–5 h. The turbidity of bacterial cell suspension was calibrated to 0.5 McFarland Standard by the spectrophotometric method (OD 625 nm 0.08–0.10), as indicated in the CLSI protocol M7-A9 and, further, the standardized suspension was diluted (1:100) with MHB to reach 1–2 × 10^6 CFU/mL. All wells were seeded with 100 µl of the mentioned final inoculum, and some wells contained only inoculated broth as control growth. […] The MICs were determined by using the assay repeated twice in triplicate. Throughout the study, norfloxacin was used as reference antibiotic. Appropriate controls involved norfloxacin for bacteria as international reference standard. […]

P. aeruginosa ATCC 27853 [10] = assay: MIC by broth microdilution (CLSI); format: cell-based; conditions: Pseudomonas aeruginosa, ATCC27853; Gram-negative; 37 °C, 24 h, Mueller Hinton Broth
Method: as §3, §4

E. faecalis ATCC 29212 [11] = assay: MIC by broth microdilution (CLSI); format: cell-based, Enterococcus faecalis; conditions: Enterococcus faecalis, ATCC29212; Gram-positive; 37 °C, 24 h, Mueller Hinton Broth; read-out: MIC E.f. 29212
Method: as §3, §4

Staphylococcus aureus = assay: MIC by broth microdilution, S. aureus (strain not given); format: cell-based; conditions: strain not specified (best value among the ATCC strains), read-out: MIC against S. aureus
Method: as §3, §4

S. aureus ATCC 29213 [12] = assay: MIC by broth microdilution (CLSI); format: cell-based, Staphylococcus aureus; conditions: Staphylococcus aureus, ATCC29213; Gram-positive; 37 °C, 24 h, Mueller Hinton Broth
Method: as §3, §4

S. aureus ATCC 6538 = assay: MIC by broth microdilution (CLSI); format: cell-based, Staphylococcus aureus; conditions: Staphylococcus aureus, ATCC6538; Gram-positive; 37 °C, 24 h, Mueller Hinton Broth
Method: as §3, §4

S. aureus ATCC 6538P = assay: MIC by broth microdilution (CLSI); format: cell-based, Staphylococcus aureus; conditions: Staphylococcus aureus, ATCC6538P; Gram-positive; 37 °C, 24 h, Mueller Hinton Broth
Method: as §3, §4

[13] = tested on: cancer cell lines (MCF-7, MDA-MB-231, HeLa, Ishikawa, A2058); assay: MTT cell viability assay, panel of cancer cell lines; format: cell-based; conditions: Homo sapiens, all cancer cell lines used, 72 h, read-out: IC50 against the cancer cell lines
Excerpt: In order to investigate the anticancer effects of compounds 1ab, 1bc and 1ce (TCC), we used different human cancer cell models, namely, two breast cancer cells (MCF-7 and MDA-MB-231), two uterine cancer cells (HeLa and Ishikawa) and the melanoma epithelial cells A2058.
as §1
Cell viability was determined using the 3-(4,5-dimethylthiazol-2-y1)-2,5-diphenyltetrazolium bromide (MTT, Sigma-Aldrich, Milan, Italy) assay. […]

K. pneumoniae ATCC 13883 [14] = tested on: K. pneumoniae ATCC 13883; set-up: method as in earlier work; conditions: reference antibiotic, values according to CLSI (2012) ref 26; cited from earlier work
E. coli 25922 [15] = tested on: E. coli 25922; set-up: method as in earlier work; conditions: reference antibiotic, values according to CLSI (2012) ref 26; cited from earlier work
E. faecalis ATCC 29212 [16] = tested on: E. faecalis ATCC 29212; set-up: method as in earlier work; conditions: reference antibiotic, values according to CLSI (2012) ref 26; cited from earlier work
P. aeruginosa ATCC 27853 [17] = tested on: P. aeruginosa ATCC 27853; set-up: method as in earlier work; conditions: reference antibiotic, values according to CLSI (2012) ref 26; cited from earlier work
S. aureus ATCC 29213 [18] = tested on: S. aureus ATCC 29213; set-up: method as in earlier work; conditions: reference antibiotic, values according to CLSI (2012) ref 26; cited from earlier work

SMILES	MIC (E. coli 25922 [1]) [µg/mL]	IC50 [2] [µg/mL]	IC50 [3] [µg/mL]	IC50 [4] [µg/mL]	IC50 [5] [µg/mL]	IC50 [6] [µg/mL]	IC50 [7] [µg/mL]	IC50 [8] [µg/mL]	melting point [°C]	MIC (K. pneumoniae ATCC 13883 [9]) [µg/mL]	MIC (P. aeruginosa ATCC 27853 [10]) [µg/mL]	MIC (E. faecalis ATCC 29212 [11]) [µg/mL]	MIC (Staphylococcus aureus) [µg/mL]	MIC (S. aureus ATCC 29213 [12]) [µg/mL]	MIC (S. aureus ATCC 6538) [µg/mL]	MIC (S. aureus ATCC 6538P) [µg/mL]	IC50 [13] [µg/mL]	further results
Cc1ccc(NC(=O)Nc2c(C)cccc2C)cc1 [1ab, 1-(2,6-Dimethylphenyl)-3-p-tolylurea]	> 256	> 200	> 200	> 200	> 200	> 200	> 200	> 200	242 to 243	> 256	> 256	32 (≈ 126 µM)	16 (≈ 62.9 µM)	> 256	16 (≈ 62.9 µM)	16 (≈ 62.9 µM)	> 200	
Cc1cccc(C)c1NC(=O)Nc1ccc(Cl)cc1 [1bc, 1-(2,6-Dimethylphenyl)-3-(4-chlorophenyl)urea]	> 256	> 200	> 200	> 200	> 200	> 200	> 200	> 200	244 to 245	> 256	> 256	32 (≈ 116 µM)	16 (≈ 58.2 µM)	256 (≈ 932 µM)	16 (≈ 58.2 µM)	16 (≈ 58.2 µM)	> 200	
O=C(Nc1ccc(Cl)cc1)Nc1ccc(Cl)c(Cl)c1 [1ce (TCC), 1-(3,4-Dichlorophenyl)-3-(4-chlorophenyl)urea, reference compound]	256 (≈ 811 µM)	1.01 ± 1.1 (≈ 3.2 µM)	0.89 ± 0.8 (≈ 2.82 µM)	1.43 ± 0.7 (≈ 4.53 µM)	0.89 ± 0.7 (≈ 2.82 µM)	1.6 ± 0.8 (≈ 5.07 µM)	0.64 ± 0.5 (≈ 2.03 µM)	1.68 ± 0.9 (≈ 5.32 µM)		256 (≈ 811 µM)	256 (≈ 811 µM)	64 (≈ 203 µM)	16 (≈ 50.7 µM)	16 (≈ 50.7 µM)	128 (≈ 406 µM)	16 (≈ 50.7 µM)	0.64 to 1.68 (≈ 2.03 to 5.32 µM)	
CCn1cc(C(=O)O)c(=O)c2cc(F)c(N3CCNCC3)cc21 [NRF, norfloxacin]																		MIC K.p. 13883 (K. pneumoniae ATCC 13883 [14]): 0.5 to 1 µg/mL; MIC E.c. 25922 (E. coli 25922 [15]): 0.03 to 0.12 µg/mL; MIC E.f. 29212 (E. faecalis ATCC 29212 [16]): 2 to 8 µg/mL; MIC P. a. 27853 (P. aeruginosa ATCC 27853 [17]): 1 to 4 µg/mL; MIC S.a. 29213 (S. aureus ATCC 29213 [18]): 0.5 to 2 µg/mL
